Laboratory results as given in patent US10335411B2, “Administration of ubiquitin-activating enzyme inhibitor and radiation” (Millennium Pharmaceuticals, Inc., priority 2014, dated 2019).

How the values were obtained:
HN-13-0014 xenograft = HN-13-0014 xenograft model, Compound 1 and radiation; assay type: in vivo, mice
Text: The HN-13-0014 xenograft model is a human head and neck primary tumor model. Approximately nine week old female BALB/c nude (Shanghai Sino-British SIPPR/BK Laboratory Animal Co., LTD.) mice were implanted subcutaneously with approximate 30 mm^3 HN-13-0014 tumor slices in the right flank. When the mean tumor volume reached approximately 162 mm^3, the animals were randomized into 10 treatment groups (n=8/group).
Compound 1 [((1R,2R,3S,4R)-2,3-dihydroxy-4-(2-(3-(trifluoromethylthio) ? phenyl)pyrazolo[1,5-a]pyrimidin-7-ylamino)cyclopentyl)methyl sulfamate] is formulated in 10% HPbCD in sterile water and administered intravenously on a BIW (twice/week schedule; Monday and Thursday, i.e. days 0, 3, 7, 10, 14, 17) for 3 weeks in the HN-13-0014 and LU-01-0030 (first study) models. Compound 1 formulation was prepared weekly and stored at room temperature in the dark.
Beam-focused radiation was delivered using a either 1 or 2 Gray dosed on days 0, 1, 7, and 8 or on days 0, 3, 7, and 10 in the HN-13-0014 and LU-01-0030 (first study) models. A Rad Source RS-2000 X-ray irradiator was used for therapy (Rad Source). Before radiation, animals were anesthetized by i.p. injection using 1.0% sodium pentobarbital at 80 mg/kg (Vendor: Sigma). Focused radiation was applied to each mouse at 1 Gy/min.
(§1) Tumors were measured twice weekly using vernier calipers. Tumor volumes were calculated using the following formula: (0.5×[length×width^2]). Treatment groups and dosing/treatment schedules are indicated in Tables 1a, 2a, 3a, 4a, and 5a below. Tumor size and body weight are measured approximately twice a week for the duration of the study. Mice are euthanized when their tumor volume reached approximately 1000 mm^3. Tumor growth continued to be monitored after the dosing period in some studies. In Tables 1a, 2a, 3a, 4a, and 5a tumor volumes are shown for HN-13-0014 (day 21), LU-01-0030 (day 21), the second LU-01-0030 study (day 20), LU-01-0266 (day 20), ST-02-0004 (day 21) and FIN-13-0007 (day 24), respectively. Average tumor volume is reported as a function of time for selected groups of selected studies.
(§2) Measurements from day 0 to day 20, day 21 or day 24 are analyzed as specified in Tables below. All tumor volumes have a value of 1 added to them before log10 transformation. For each animal, the log tumor volume at day 0 is subtracted from the log tumor volume on the subsequent days. This difference vs. time is used to calculate an area under the curve (AUC) for each animal using the trapezoid rule. In instances when an animal in a treatment group is removed early from the study, the last observed tumor value is carried forward through all subsequent time points. The synergy score for the combination of agents A and B is defined as 100*(mean(AUCAB)−mean(AUCA)−mean(AUCB)+mean(AUCctl))/mean(AUCctl): where AUCAB, AUCA, AUCB, and AUCctl are the AUC values for animals in the combination group, the A group, the B group, and the control group, respectively. The standard error of the synergy score is computed based on the variation in the AUC values among the animals. […] If the P-value is above 0.05, then the combination is considered to be additive. If the P-value is below 0.05, and the synergy score is less than zero, then the combination is considered to be synergistic. If the P-value is below 0.05 and the synergy score was greater than zero, but the mean AUC for the combination was lower than the lowest mean AUC among the two single agent treatments, then the combination was sub-additive. If the P-value is below 0.05 and if the synergy score was greater than zero, and the mean AUC for the combination was greater than the mean AUC for at least one of the single agent treatments, then the combination was antagonistic.

LU-01-0030 xenograft = test: second LU-01-0030 xenograft study, Compound 1 and radiation; assay type: in vivo, mice
Text: In a second study with the LU-01-0030 xenograft model, 6-8 week old female BALB/c nude (Shanghai Sino-British SIPPR/BK Laboratory Animal Co., LTD.) mice were implanted subcutaneously with approximate 20-30 mm^3 LU-01-0030 tumor slices in the right flank. When the mean tumor volume reached approximately 182 mm^3, the animals were randomized into 6 treatment groups (n=8/group).
Compound 1 [((1R,2R,3S,4R)-2,3-dihydroxy-4-(2-(3-(trifluoromethylthio) ? phenyl)pyrazolo[1,5-a]pyrimidin-7-ylamino)cyclopentyl)methyl sulfamate] is formulated in 10% HPbCD in sterile water and administered intravenously on days 0, 3, 7, 10, 14, 17 in the LU-01-0266 and HN-13-0007 models and on days 0, 3, 8, 11, 15, 18 in the ST-02-0004 model and in the second study with the LU-01-0030 model. Compound 1 formulation was prepared weekly and stored at room temperature in the dark.
Beam-focused radiation was delivered using 4 Gray dosed on day 0 in the second study for the LU-01-0030 model.
as §1, §2

[1] = 6.25 mg/kg Compound 1 + 2 Gy Radiation D0, 1, 7, 8
[2] = 6.25 mg/kg Compound 1 + 2 Gy Radiation D0, 3, 7, 10
[3] = 15 mg/kg Compound 1 + 2 Gy Radiation D0, 1, 7, 8
[4] = 15 mg/kg Compound 1 + 2 Gy Radiation D0, 3, 7, 10
[5] = 6.25 mg/kg Compound 1 + 4 Gy Radiation D0
[6] = 15 mg/kg Compound 1 + 4 Gy Radiation D0

NS(=O)(=O)OC[C@H]1C[C@@H](Nc2ccnc3cc(-c4cccc(SC(F)(F)F)c4)nn23)[C@H](O)[C@@H]1O [Compound 1, ((1R,2R,3S,4R)-2,3-dihydroxy-4-(2-(3-(trifluoromethylthio)phenyl)pyrazolo[1,5-a]pyrimidin-7-ylamino)cyclopentyl)methyl sulfamate]
Classification (HN-13-0014 xenograft; [1]): Additive (If the P-value is above 0.05, then the combination is considered to be additive) | Synergy score (HN-13-0014 xenograft; [1]): 8.6 | Classification (HN-13-0014 xenograft; [2]): Additive (If the P-value is above 0.05, then the combination is considered to be additive) | Synergy score (HN-13-0014 xenograft; [2]): 7.7 | Tumor Volume Day 21 (HN-13-0014 xenograft; 6.25 mg/kg Compound 1 IV BIWx3 + 2 Gy Radiation Beam D 0, 1, 7, 8): 392.7 mm^3 | Tumor Volume Day 21 (HN-13-0014 xenograft; 6.25 mg/kg Compound 1 IV BIWx3 + 2 Gy Radiation Beam D 0, 3, 7, 10): 381.9 mm^3 | Tumor Volume Day 21 (HN-13-0014 xenograft; 6.25 mg/kg Compound 1 IV BIWx3, single agent): 575.9 mm^3 | Classification (HN-13-0014 xenograft; [3]): Additive (If the P-value is above 0.05, then the combination is considered to be additive) | Synergy score (HN-13-0014 xenograft; [3]): 7.9 | Classification (HN-13-0014 xenograft; [4]): Additive (If the P-value is above 0.05, then the combination is considered to be additive) | Synergy score (HN-13-0014 xenograft; [4]): 3.2 | Tumor Volume Day 21 (HN-13-0014 xenograft; 15 mg/kg Compound 1 IV BIWx3 + 2 Gy Radiation Beam D 0, 1, 7, 8): 372.4 mm^3 | Tumor Volume Day 21 (HN-13-0014 xenograft; 15 mg/kg Compound 1 IV BIWx3 + 2 Gy Radiation Beam D 0, 3, 7, 10): 356.2 mm^3 | Tumor Volume Day 21 (HN-13-0014 xenograft; 15 mg/kg Compound 1 IV BIWx3, single agent): 539.9 mm^3 | combination effect (HN-13-0014 xenograft; Compound 1 with 2 Gy radiation): additive combination effect | anti-tumor activity compared to vehicle control (HN-13-0014 xenograft; single agent, IV at 6.25 and 15 mg/kg BIW for 3 weeks): modest anti-tumor activity | Classification (LU-01-0030 xenograft; [5]): Additive (If the P-value is above 0.05, then the combination is considered to be additive) | Synergy score (LU-01-0030 xenograft; [5]): −74.5 | Tumor Volume Day 20 (LU-01-0030 xenograft; 6.25 mg/kg Compound 1 IV D 0, 3, 8, 11, 15, 18 + 4 Gy Radiation Beam D 0): 83.8 mm^3 | Tumor Volume Day 20 (LU-01-0030 xenograft; 6.25 mg/kg Compound 1 IV D 0, 3, 8, 11, 15, 18, single agent): 648.9 mm^3 | Classification (LU-01-0030 xenograft; [6]): Additive (If the P-value is above 0.05, then the combination is considered to be additive) | Synergy score (LU-01-0030 xenograft; [6]): −10.3 | Tumor Volume Day 20 (LU-01-0030 xenograft; 15 mg/kg Compound 1 IV D 0, 3, 8, 11, 15, 18 + 4 Gy Radiation Beam D 0): 2.04 mm^3 | Tumor Volume Day 20 (LU-01-0030 xenograft; 15 mg/kg Compound 1 IV D 0, 3, 8, 11, 15, 18, single agent): 67.8 mm^3 | combination effect (LU-01-0030 xenograft; Compound 1 with 4 Gy radiation): additive combination effect
